The source of these data is patent US5792780A, “Azole compounds, their production and use” (Takeda Chemical Industries, Ltd., priority 1993, dated 1998).

For experiment [1], the system named is Candida albicans TA. In words: protective effect against experimental infection in mice (survival rate 7 days after infection). Format: in vivo, Crj:CDF1 mice. The conditions noted are these: po, 168 h, survival 7 days after infection. How it is done:
Test Method: Five-week-old Crj:CDF1 mice were inoculated with the minimum lethal dose of Candida albicans TA intravenously. The test compound was suspended in a solution of 0.2% or 0.5% sodium carboxymethylcellulose (CMC). The suspension was administered orally once immediately after infection. The activity was expressed in terms of ED50 values calculated by the Reed and Muench method from the survival rate 7 days after infection.
Test Method: Five-week-old Crj:CDF1 mice were inoculated with the minimum lethal dose of Candida albicans TA intravenously. The test compound was suspended in a solution of 0.5% sodium carboxymethylcellulose (CMC). The suspension was administered orally once immediately after infection. The activity was expressed in terms of ED50 values calculated by the Reed and Muench method from the survival rate 7 days after infection.

The test system of experiment [2] is Candida albicans IFO 0583. Put plainly: growth inhibition zone, paper disc agar diffusion. Format: cell-based. Particulars: IFO0583, 48 h, Table 6, Medium A, 1000 μg/ml, 28° C., two-day culture, read-out: Diameter of growth-inhibition zone. How it is done: Evaluation of the antifungal activities of the compound of the present invention was conducted by the following method: a sheet of filter paper disc (manufactured by Toyo Seisakusho, 8 mm in diameter) soaked in a 1000 μg/ml solution of a compound of the present invention in methanol was placed on an agar plate containing various fungi, which was incubated at 28° C. for two days, and the diameter of the growth inhibition zone around the filter paper disc was measured. The following culture media were used:
A: yeast nitrogen base agar medium (pH 7.0)
B: peptone-yeast extract-glucose agar medium (pH 7.0)
In general terms: Agar diffusion results depend on both activity and mobility in agar.

Setting [3] is: Table 8, P.O. once immediately after infection, 0.5% CMC.
Setting [4] is: Table 9, compounds of formula (VI), P.O. once immediately after infection, 0.5% CMC.
[5] abbreviates: Table 7, P.O. once immediately after infection, 0.2% CMC.

Molecules are shown by their SMILES.

Consider `C[C@@H](N1CCN(c2ccc(OCC(F)(F)C(F)F)cc2)C1=O)[C@](O)(Cn1cncn1)c1ccc(F)cc1` [Compound 19, 1-[(1R,2R)-2-(4-fluorophenyl)-2-hydroxy-1-methyl-3-(1H-1,2,4-triazol-1-yl)propyl]-3-[4-(2,2,3,3-tetrafluoropropoxy)phenyl]-2-imidazolidinone], for which the 50% effect level in experiment [1] (setting [3]) (ED50) was put at a dose of 0.77 mg/kg. Same read-out and setting: to `C[C@@H](N1CCN(c2ccc(OCC(F)(F)C(F)F)cc2)C(=O)C1=O)[C@](O)(Cn1cncn1)c1ccc(F)cc1F` [Compound 14, 1-[(1R,2R)-2-(2,4-difluorophenyl)-2-hydroxy-1-methyl-3-(1H-1,2,4-triazol-1-yl)propyl]-4-[4-(2,2,3,3-tetrafluoropropoxy)phenyl]-2,3-piperazinedione] belongs 2.8 mg/kg. As to `C[C@@H](n1ccn(-c2ccc(OC(F)(F)C(F)F)cc2)c1=O)[C@](O)(Cn1cncn1)c1ccccc1F` [Reference Example 49, 1-[(1R,2R)-2-(2-fluorophenyl)-2-hydroxy-1-methyl-3-(1H-1,2,4-triazol-1-yl)propyl]-3-[4-(1,1,2,2-tetrafluoroethoxy)phenyl]-2(1H,3H)-imidazolone], in experiment [1] (setting [4]), the 50% effect level (ED50) was put at a dose of 0.18 mg/kg. In the case of `C[C@@H](N1CCN(c2ccc(OCC(F)(F)C(F)F)cc2)C1=O)[C@](O)(Cn1cncn1)c1ccc(F)cc1F` [Compound 6, 1-[(1R,2R)-2-(2,4-difluorophenyl)-2-hydroxy-1-methyl-3-(1H-1,2,4-triazol-1-yl)propyl]-3-[4-(2,2,3,3-tetrafluoropropoxy)phenyl]-2-imidazolidinone], the 50% effect level in experiment [1] (setting [3]) (ED50) was put at a dose of 0.71 mg/kg. In addition, the zone of inhibition (commonly the extent of the growth-free halo in a diffusion test) at 1000 µg/mL in experiment [2] turned out to be 36 mm. As to `C[C@@H](n1ccn(-c2ccc(OC(F)(F)C(F)F)cc2)c1=O)[C@](O)(Cn1cncn1)c1ccc(F)cc1` [Reference Example 45, 1-[(1R,2R)-2-(4-fluorophenyl)-2-hydroxy-1-methyl-3-(1H-1,2,4-triazol-1-yl)propyl]-3-[4-(1,1,2,2-tetrafluoroethoxy)phenyl]-2(1H,3H)-imidazolone], the ED50 (in general, the midpoint of the dose-response relation) in experiment [1] (setting [4]) was 0.18 mg/kg. In the case of `C[C@@H](N1CCN(c2ccc(OC(F)(F)C(F)F)cc2)C(=O)C1=O)[C@](O)(Cn1cncn1)c1ccc(F)cc1F` [Compound 15, 1-[(1R,2R)-2-(2,4-difluorophenyl)-2-hydroxy-1-methyl-3-(1H-1,2,4-triazol-1-yl)propyl]-4-[4-(1,1,2,2-tetrafluoroethoxy)phenyl]-2,3-piperazinedione], in experiment [1] (setting [3]), the ED50 turned out to be 2 mg/kg. The same measure, in the same setting: for `C[C@@H](N1CC(=O)N(c2ccc(OC(F)(F)C(F)F)cc2)CC1=O)[C@](O)(Cn1cncn1)c1ccc(F)cc1F` [Compound 12, 1-[(1R,2R)-2-(2,4-difluorophenyl)-2-hydroxy-1-methyl-3-(1H-1,2,4-triazol-1-yl)propyl]-4-[4-(1,1,2,2-tetrafluoroethoxy)phenyl]-2,5-peperazinedione] the value was 2.8 mg/kg. The compound `C[C@@H](N1CCN(c2ccc(OCC(F)(F)F)cc2)C1=O)[C@](O)(Cn1cncn1)c1ccc(F)cc1F` [Compound 9, 1-[(1R,2R)-2-(2,4-difluorophenyl)-2-hydroxy-1-methyl-3-(1H-1,2,4-triazol-1-yl)propyl]-3-[4-(2,2,2-trifluoroethoxy)phenyl]-2-imidazolidinone] registered a 50% effective dose (ED50) in experiment [1] (setting [5]) of 0.65 mg/kg. Further, the zone of inhibition at 1000 µg/mL in experiment [2] amounted to 41 mm. `C[C@@H](N1CCN(c2ccc(F)cc2)C1=O)[C@](O)(Cn1cncn1)c1ccc(F)cc1F` [Compound 5, 1-[(1R,2R)-2-(2,4-difluorophenyl)-2-hydroxy-1-methyl-3-(1H-1,2,4-triazol-1-yl)propyl]-3-(4-fluorophenyl)-2-imidazolidinone]: the zone of inhibition at 1000 µg/mL in experiment [2] came to 47 mm. For `C[C@@H](n1ccn(-c2ccc(OCC(F)(F)C(F)F)cc2)c1=O)[C@](O)(Cn1cncn1)c1ccccc1F` [Reference Example 50, 1-[(1R,2R)-2-(2-fluorophenyl)-2-hydroxy-1-methyl-3-(1H-1,2,4-triazol-1-yl)propyl]-3-[4-(2,2,3,3-tetrafluoropropoxy)phenyl]-2(1H,3H)-imidazolone], it took a dose of 0.32 mg/kg to reach the 50% effect level in experiment [1] (setting [4]) (ED50).

Consider `C[C@@H](N1CCN(c2ccc(OC(F)(F)C(F)F)cc2)C1=O)[C@](O)(Cn1cncn1)c1ccc(F)cc1F` [Compound 7, 1-[(1R,2R)-2-(2,4-difluorophenyl)-2-hydroxy-1-methyl-3-(1H-1,2,4-triazol-1-yl)propyl]-3-[4-(1,1,2,2-tetrafluoroethoxy)phenyl]-2-imidazolidinone], for which the figures for the 50% effective dose (ED50) in experiment [1] (setting [5]) and in experiment [1] (setting [3]) were 0.65 mg/kg and 0.35 mg/kg, respectively. Besides, the zone of inhibition at 1000 µg/mL in experiment [2] stood at 35 mm. As for `C[C@@H](N1CC(=O)N(c2ccc(F)cc2F)C1=O)[C@](O)(Cn1cncn1)c1ccc(F)cc1F` [Compound 3, 1-[(1R,2R)-2-(2,4-difluorophenyl)-2-hydroxy-1-methyl-3-(1H-1,2,4-triazol-1-yl)propyl]-3-(2,4-difluorophenyl)-2,4-imidazolidinedione], in experiment [1] (setting [5]), it took a dose of 2 mg/kg to reach the 50% effect level (ED50). In addition, the zone of inhibition at 1000 µg/mL in experiment [2] came to 41 mm. In experiment [1] (setting [5]), `C[C@@H](N1CCN(c2ccc(OCC(F)(F)C(F)(F)F)cc2)C1=O)[C@](O)(Cn1cncn1)c1ccc(F)cc1F` [Compound 8, 1-[(1R,2R)-2-(2,4-difluorophenyl)-2-hydroxy-1-methyl-3-(1H-1,2,4-triazol-1-yl)propyl]-3-[4-(2,2,3,3,3-pentafluoropropoxy)phenyl]-2-imidazolidinone] gave an ED50 of 2 mg/kg. In addition, the zone of inhibition at 1000 µg/mL in experiment [2] is 28 mm.

Compound `C[C@@H](N1CCN(c2ccc(OC(F)(F)C(F)F)cc2)C1=O)[C@](O)(Cn1cncn1)c1ccc(F)cc1` [Compound 18, 1-[(1R,2R)-2-(4-fluorophenyl)-2-hydroxy-1-methyl-3-(1H-1,2,4-triazol-1-yl)propyl]-3-[4-(1,1,2,2-tetrafluoroethoxy)phenyl]-2-imidazolidinone] gave a 50% effective dose (ED50) in experiment [1] (setting [3]) of 0.35 mg/kg. The same measure, in the same setting: for `C[C@@H](N1CCN(c2ccc(OCC(F)(F)C(F)F)cc2)C1=O)[C@](O)(Cn1cncn1)c1ccccc1F` [Compound 17, 1-[(1R,2R)-2-(2-fluorophenyl)-2-hydroxy-1-methyl-3-(1H-1,2,4-triazol-1-yl)propyl]-3-[4-(2,2,3,3-tetrafluoropropoxy)phenyl]-2-imidazolidinone] the value was 0.65 mg/kg.

`C[C@@H](n1ccn(-c2ccc(OCC(F)(F)C(F)F)cc2)c1=O)[C@](O)(Cn1cncn1)c1ccc(F)cc1` [Reference Example 46, 1-[(1R,2R)-2-(4-fluorophenyl)-2-hydroxy-1-methyl-3-(1H-1,2,4-triazol-1-yl)propyl]-3-[4-(2,2,3,3-tetrafluoropropoxy)phenyl]-2(1H,3H)-imidazolone]: in experiment [1] (setting [4]), the ED50 was found to be 0.32 mg/kg. Take `C[C@@H](N1CC(=O)N(c2ccc(OCC(F)(F)C(F)F)cc2)CC1=O)[C@](O)(Cn1cncn1)c1ccc(F)cc1F` [Compound 11, 1-[(1R,2R)-2-(2,4-difluorophenyl)-2-hydroxy-1-methyl-3-(1H-1,2,4-triazol-1-yl)propyl]-4-[4-(2,2,3,3-tetrafluoropropoxy)phenyl]-2,5-piperazinedione]: the zone of inhibition at 1000 µg/mL in experiment [2] came out at 31 mm. Take `C[C@@H](N1CCN(c2ccc(Cl)cc2)C1=O)[C@](O)(Cn1cncn1)c1ccc(F)cc1F` [Compound 10, 1-(4-chlorophenyl)-3-[(1R,2R)-2-(2,4-difluorophenyl)-2-hydroxy-1-methyl-3-(1H-1,2,4-triazol-1-yl)propyl]-2-imidazolidinone]: the 50% effect level in experiment [1] (setting [5]) (ED50) was put at a dose of 1.8 mg/kg. Further, the zone of inhibition at 1000 µg/mL in experiment [2] turned out to be 42 mm. In experiment [1] (setting [3]), `C[C@@H](N1CCN(c2ccc(OC(F)(F)C(F)F)cc2)C1=O)[C@](O)(Cn1cncn1)c1ccccc1F` [Compound 16, 1-[(1R,2R)-2-(2-fluorophenyl)-2-hydroxy-1-methyl-3-(1H-1,2,4-triazol-1-yl)propyl]-3-[4-(1,1,2,2-tetrafluoroethoxy)phenyl]-2-imidazolidinone] gave an ED50 of 0.35 mg/kg.
